Patent publication US11312722B2, “Hsp90 inhibitors and uses thereof” (TRUSTEES OF BOSTON UNIVERSITY, priority 2019, dated 2022)
Read-outs that look alike come from different tables or passages of the source.

Legend:
[1] = target: Hsp90 (C. albicans whole cell lysate) (Candida albicans (strain SC5314 / ATCC MYA-2876) (Yeast), UniProt P46598); assay: biochemical; format: binding; details: for C. alb Active (biochemical): Yes/No call
Protocol: All analogs were assessed for Hsp90 binding affinity using a fluorescence polarization (FP)-based equilibrium competition assay in fungal and human whole cell lysates. […] Using lysates, the relative potency and selectivity for fungal Hsp90 was measured versus the entire ensemble of human Hsp90 isoforms in microplate format using small amounts of test materials. […] Thermal shift assays were performed under saturating ligand conditions, i.e. equimolar concentrations (10 μM) of protein and ligand. As a result, they provided qualitative evidence of target binding, but not a quantitative measurement of ligand affinity. For quantitation, a ligand dissociation constant (Ki) for key compounds was also determined using purified NBDs in FP assays and KD measurements were made by surface plasmon resonance (SPR) using a Biacore instrument. Finally, all analogs were assessed for whole cell antifungal activity against the pathogens C. albicans and C. neoformans.
FP assays. Whole cell lysates were prepared for FP assays as described previously. Total protein concentration of human and yeast lysates was determined by Bradford assay. […] Serial dilutions of test Hsp90 inhibitors were then assayed under these same conditions to monitor loss of fluorescence polarization as an indicator of probe displacement from Hsp90. […] Titrations of test compound in 25 μL of binding buffer (supplemented with 0.1 mg/mL bovine gamma globulin), were mixed with an equal volume of freshly prepared whole-cell lysate spiked with Cy3-GdA (0.1 nM). Plates were incubated at room temperature for 4.5 h to achieve equilibrium binding for the geldanamycin-based probe. […] Non-linear 4-parameter curve fitting of raw displacement data was performed in GraphPad Prism 5.0 to determine EC50 values as a measure of relative Hsp90-binding affinity. Results were normalized to the value determined for GdA in lysate of each cell type.
Statistical methods. […] In calculating the error of selectivity determinations, the fractional error of measurements in each species was summed to yield a composite error for the derived ratio.

[2] = tested on: C. neoformans (Strain H99); assay: Antifungal sensitivity testing (MIC), C. neoformans H99; format: cell-based; details: for MIC80 / MIC90: Cryptococcus neoformans; for MIC80: read-out: C. neo MIC80; for MIC90: read-out: C. neo MIC90
Protocol: Color scale bar: no growth inhibition (green) to complete inhibition (black). Each shaded box represents the mean of technical duplicates. The experiment was repeated as an independent biological replicate to confirm results.
Minimum inhibitory concentration (MIC) value for compounds against C. neoformans (Strain H99) was determined in dose-response format, in technical duplicate. Experiments were conducted in RPMI medium at 37° C. for 48 h. Relative viable cell number was measured by standard dye reduction (resazurin) assay.
Yeast strains and culture conditions. Strains used in this study were C. albicans CaCi2 (clinical isolate 2), [58] SC5314, [59] and C. neoformans H99. […] Active cultures were maintained on solid (2% agar) yeast extract peptone (YPD, 1% yeast extract, 2% bactopeptone, 2% glucose) at 4° C. for no more than one month.
Antifungal sensitivity testing. […] Each compound was tested in duplicate in at least two independent experiments. […] Plates were photographed after 24 h of incubation at 30° C.

[3] = FP competition, whole cell lysate, duplicate, screening experiment, read-out: C. albicans EC50

For `COc1cccc(-c2cc(Nc3cc(O)cc(O)c3C(=O)N3Cc4cccc(F)c4C3)n(C)n2)c1` [ACSM01130], the “C. alb Active (biochemical)” value [1] was “Yes”, the EC50 ([1]; read-out: C. alb EC50) was 5.82 µM and the “C. neo MIC80” value [2] was >50 µM. The “C. neo MIC90” value [2] was >50 µM.

For `Cc1ccccc1-c1cc(Nc2cc(O)cc(O)c2C(=O)N2Cc3ccc(F)cc3C2)n(C)n1` [ACSM01135], the “C. alb Active (biochemical)” value [1] was “Yes” and the EC50 ([1]; read-out: C. alb EC50) was 0.904 µM.

In the case of `Cc1ccc(F)c(-c2cc(Nc3cc(O)cc(O)c3C(=O)N3Cc4ccccc4C3)n(C)n2)c1` [ACSM01268], the “C. alb Active (biochemical)” value [1] is reported as “Yes” and the EC50 ([1]; read-out: C. alb EC50) is reported as 1.68 µM.

With `Cn1nc(-c2cccc(F)c2F)cc1Nc1cc(O)cc(O)c1C(=O)N1Cc2ccccc2C1` [ACSM01269] the “C. alb Active (biochemical)” value [1] was “Yes” and the EC50 ([1]; read-out: C. alb EC50) was 2.21 µM.

In the case of `Cn1nc(-c2cc(F)ccc2F)cc1Nc1cc(O)cc(O)c1C(=O)N1Cc2ccccc2C1` [ACSM01270], the “C. alb Active (biochemical)” value [1] is reported as “Yes” and the EC50 ([1]; read-out: C. alb EC50) is reported as 1.12 µM.

`COc1ccccc1-c1cc(Nc2cc(O)cc(O)c2C(=O)N2CC[C@H](N)C2)n(C)n1` [ACSM01271] was tested, and the “C. alb Active (biochemical)” value [1] was “Yes”, the EC50 ([1]; read-out: C. alb EC50) was 5.34 µM and the “C. neo MIC80” value [2] was >25 µM. The “C. neo MIC90” value [2] was >25 µM.

For `Cc1cccc(-c2cc(Nc3cc(O)cc(O)c3C(=O)N3Cc4ccccc4C3)n(C)n2)c1C` [ACSM01272], the “C. alb Active (biochemical)” value [1] was “Yes” and the EC50 ([1]; read-out: C. alb EC50) was 6.2 µM.

In the case of `Cc1cccc(-c2cc(Nc3cc(O)cc(O)c3C(=O)N3Cc4ccccc4C3)n(C)n2)c1F` [ACSM01273], the “C. alb Active (biochemical)” value [1] is reported as “Yes”.

In the case of `Cn1nc(-c2cccc(F)c2)cc1Nc1cc(O)cc(O)c1C(=O)N1Cc2ccccc2C1` [ACSM01345], the “C. alb Active (biochemical)” value [1] is reported as “Yes” and the EC50 ([1]; read-out: C. alb EC50) is reported as 1.25 µM.

With `Cn1nc(-c2cccc(Cl)c2)cc1Nc1cc(O)cc(O)c1C(=O)N1Cc2ccccc2C1` [ACSM01362] the “C. alb Active (biochemical)” value [1] was “Yes” and the EC50 ([1]; read-out: C. alb EC50) was 4.17 µM.

With `COc1ccc(Cn2nc(C)cc2Nc2cc(O)cc(O)c2C(=O)N(C)CC2CC2)cc1` [Compound 30, N-(Cyclopropylmethyl)-2,4-dihydroxy-6-((1-((4-methoxyphenyl)methyl)-3-methyl-1H-pyrazol-5-yl)amino)-N-methylbenzamide] the EC50 [1, 3] was > 9 µM, the “C. alb Active (biochemical)” value [1] was “No” and the EC50 ([1]; read-out: C. alb EC50) was > 9 µM. The MIC80 [2] was > 25 µM and the MIC90 [2] was > 25 µM.

In the case of `COc1ccc(Cn2nc(C)cc2Nc2cc(O)cc(O)c2C(=O)N(C)Cc2ccccc2)cc1` [Compound 37, N-Benzyl-2,4-dihydroxy-6-((1-((4-methoxyphenyl)methyl)-3-methyl-1H-pyrazol-5-yl)amino)-N-methylbenzamide], the EC50 [1, 3] is reported as > 6 µM.

`Cn1nccc1Nc1cc(O)cc(O)c1C(=O)N1Cc2cn[nH]c2C1` [Compound 58, 5-((1-Methyl-1H-pyrazol-5-yl)amino)-4-(1H,4H,5H,6H-pyrrolo[3,4-c]pyrazole-5-carbonyl)benzene-1,3-diol] was tested, and the “C. alb Active (biochemical)” value [1] was “Yes”, the MIC80 [2] was > 25 µM and the MIC90 [2] was > 25 µM.

`Cn1nc(-c2ccccc2)cc1Nc1cc(O)cc(O)c1C(=O)N1Cc2cccnc2C1` [Compound 92, 5-((1-Methyl-3-phenyl-1H-pyrazol-5-yl)amino)-4-(5H,6H,7H-pyrrolo[3,4-b]pyridine-6-carbonyl)benzene-1,3-diol] was tested, and the “C. alb Active (biochemical)” value [1] was “Yes”, the MIC80 [2] was > 25 µM and the MIC90 [2] was > 25 µM.

With `Cn1nc(-c2ccccc2)cc1Nc1cc(O)cc(O)c1C(=O)N1Cc2cn[nH]c2C1` [Compound 93, 5-((1-Methyl-3-phenyl-1H-pyrazol-5-yl)amino)-4-(1H,4H,5H,6H-pyrrolo[3,4-c]pyrazole-5-carbonyl)benzene-1,3-diol] the “C. alb Active (biochemical)” value [1] was “Yes”, the MIC80 [2] was > 25 µM and the MIC90 [2] was > 25 µM.

With `CC(C)(C)n1nc(-c2ccccc2)cc1Nc1cc(O)cc(O)c1C(=O)N1Cc2cccnc2C1` [Compound 94, 5-((1-tert-Butyl-3-phenyl-1H-pyrazol-5-yl)amino)-4-(5H,6H,7H-pyrrolo[3,4-b]pyridine-6-carbonyl)benzene-1,3-diol] the “C. alb Active (biochemical)” value [1] was “Yes”, the MIC80 [2] was > 25 µM and the MIC90 [2] was > 25 µM.

With `CC(C)(C)n1nc(-c2ccccc2)cc1Nc1cc(O)cc(O)c1C(=O)N1Cc2cn[nH]c2C1` [Compound 95, 5-((1-tert-Butyl-3-phenyl-1H-pyrazol-5-yl)amino)-4-(1H,4H,5H,6H-pyrrolo[3,4-c]pyrazole-5-carbonyl)benzene-1,3-diol] the “C. alb Active (biochemical)” value [1] was “Yes”, the MIC80 [2] was > 25 µM and the MIC90 [2] was > 25 µM.

`Cn1nc(C2CCCCC2)cc1Nc1cc(O)cc(O)c1C(=O)N1Cc2cccnc2C1` [Compound 104, 5-((3-Cyclohexyl-1-methyl-1H-pyrazol-5-yl)amino)-4-(5H,6H,7H-pyrrolo[3,4-b]pyridine-6-carbonyl)benzene-1,3-diol] was tested, and the “C. alb Active (biochemical)” value [1] was “Yes”, the MIC80 [2] was > 25 µM and the MIC90 [2] was > 25 µM.

In the case of `Cc1ccccc1-c1cc(Nc2cc(O)cc(O)c2C(=O)N2Cc3cccnc3C2)n(C)n1` [Compound 107, 5-((1-Methyl-3-(2-methylphenyl)-1H-pyrazol-5-yl)amino)-4-(5H,6H,7H-pyrrolo[3,4-b]pyridine-6-carbonyl)benzene-1,3-diol], the “C. alb Active (biochemical)” value [1] is reported as “Yes”, the MIC80 [2] is reported as > 25 µM and the MIC90 [2] is reported as > 25 µM.

`Cc1ccccc1-c1cc(Nc2cc(O)cc(O)c2C(=O)N2Cc3cn[nH]c3C2)n(C)n1` [Compound 108, 5-((1-Methyl-3-(2-methylphenyl)-1H-pyrazol-5-yl)amino)-4-(1H,4H,5H,6H-pyrrolo[3,4-c]pyrazole-5-carbonyl)benzene-1,3-diol] was tested, and the “C. alb Active (biochemical)” value [1] was “Yes”, the MIC80 [2] was > 25 µM and the MIC90 [2] was > 25 µM.

In the case of `Cc1cccc(-c2cc(Nc3cc(O)cc(O)c3C(=O)N3Cc4ccccc4C3)n(C)n2)c1` [Compound 109, 4-(2,3-Dihydro-1H-isoindole-2-carbonyl)-5-((1-methyl-3-(3-methylphenyl)-1H-pyrazol-5-yl)amino)benzene-1,3-diol], the “C. alb Active (biochemical)” value [1] is reported as “Yes”, the MIC80 [2] is reported as > 25 µM and the MIC90 [2] is reported as > 25 µM.

With `Cc1cccc(-c2cc(Nc3cc(O)cc(O)c3C(=O)N3Cc4cccnc4C3)n(C)n2)c1` [Compound 110, 5-((1-Methyl-3-(3-methylphenyl)-1H-pyrazol-5-yl)amino)-4-(5H,6H,7H-pyrrolo[3,4-b]pyridine-6-carbonyl)benzene-1,3-diol] the “C. alb Active (biochemical)” value [1] was “Yes”, the MIC80 [2] was > 25 µM and the MIC90 [2] was > 25 µM.

In the case of `Cn1nc(-c2cccc(C(F)(F)F)c2)cc1Nc1cc(O)cc(O)c1C(=O)N1Cc2ccccc2C1` [Compound 115, 4-(2,3-Dihydro-1H-isoindole-2-carbonyl)-5-((1-methyl-3-(3-(trifluoromethyl)phenyl)-1H-pyrazol-5-yl)amino)benzene-1,3-diol], the “C. alb Active (biochemical)” value [1] is reported as “Yes”, the MIC80 [2] is reported as > 25 µM and the MIC90 [2] is reported as > 25 µM.

In the case of `Cn1nc(-c2cccc(C(F)(F)F)c2)cc1Nc1cc(O)cc(O)c1C(=O)N1Cc2cccnc2C1` [Compound 116, 5-((1-Methyl-3-(3-(trifluoromethyl)phenyl)-1H-pyrazol-5-yl)amino)-4-(5H,6H,7H-pyrrolo[3,4-b]pyridine-6-carbonyl)benzene-1,3-diol], the “C. alb Active (biochemical)” value [1] is reported as “Yes”, the MIC80 [2] is reported as > 25 µM and the MIC90 [2] is reported as > 25 µM.

`Cn1nc(-c2cccc(C(F)(F)F)c2)cc1Nc1cc(O)cc(O)c1C(=O)N1Cc2cn[nH]c2C1` [Compound 117, 5-((1-Methyl-3-(3-(trifluoromethyl)phenyl)-1H-pyrazol-5-yl)amino)-4-(1H,4H,5H,6H-pyrrolo[3,4-c]pyrazole-5-carbonyl)benzene-1,3-diol] was tested, and the “C. alb Active (biochemical)” value [1] was “Yes”, the MIC80 [2] was > 25 µM and the MIC90 [2] was > 25 µM.

In the case of `Cc1ccc(-c2cc(Nc3cc(O)cc(O)c3C(=O)N3Cc4ccccc4C3)n(C)n2)cc1` [Compound 118, 4-(2,3-Dihydro-1H-isoindole-2-carbonyl)-5-((1-methyl-3-(4-methylphenyl)-1H-pyrazol-5-yl)amino)benzene-1,3-diol], the “C. alb Active (biochemical)” value [1] is reported as “Yes”, the MIC80 [2] is reported as > 25 µM and the MIC90 [2] is reported as > 25 µM.

`COc1ccc(-c2cc(Nc3cc(O)cc(O)c3C(=O)N3Cc4ccccc4C3)n(C)n2)cc1` [Compound 121, 4-(2,3-Dihydro-1H-isoindole-2-carbonyl)-5-((3-(4-methoxyphenyl)-1-methyl-1H-pyrazol-5-yl)amino)benzene-1,3-diol] was tested, and the MIC80 [2] was > 25 µM, the MIC90 [2] was > 25 µM and the “C. neo Active (cells)” value ([2]; Yes/No call) was “No”.
